Measurements: the supplement of paper PMC5662764
± gives the standard deviation of the averaged measurements.

Assays:
Test in all cases: normalised growth rate inhibition (GR value) relative to DMSO control (GR (1 = untreated growth, 0 = cytostasis, <0 = cytotoxic)); higher = less growth inhibition
Conditions in all cases: 72 h
[1] = tested on: MCF7
Summary of the method: (§1)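 Six breast cell lines were seeded in 384-well plates and dosed 24 h later with drugs at 0.04–10 µM for 72 h. Cells were stained with Hoechst 33342 and Fixable Far Red Dead Cell Stain, fixed in 3% formaldehyde and imaged on an Operetta; viable cells were counted in Columbus. Normalised growth rate inhibition was computed from counts relative to same-plate DMSO wells and a day-0 plate. Technical plate replicates (generally three) were averaged.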

[2] = tested on: MDAMB231
Summary of the method: as §1

[3] = tested on: SKBR3
Summary of the method: as §1

[4] = tested on: MCF10A
Summary of the method: as §1

[5] = tested on: HS578T
Summary of the method: as §1

[6] = tested on: BT20
Summary of the method: as §1

| Structure (SMILES) | normalised growth rate inhibition ([1]; 0.04 µM) | normalised growth rate inhibition ([1]; 0.12 µM) | normalised growth rate inhibition ([1]; 0.37 µM) | normalised growth rate inhibition ([1]; 1.11 µM) | normalised growth rate inhibition ([1]; 3.33 µM) | normalised growth rate inhibition ([1]; 10 µM) | normalised growth rate inhibition ([2]; 0.04 µM) | normalised growth rate inhibition ([2]; 0.12 µM) | normalised growth rate inhibition ([2]; 0.37 µM) | normalised growth rate inhibition ([2]; 1.11 µM) | normalised growth rate inhibition ([2]; 3.33 µM) | normalised growth rate inhibition ([2]; 10 µM) | normalised growth rate inhibition ([3]; 0.04 µM) | normalised growth rate inhibition ([3]; 0.12 µM) | normalised growth rate inhibition ([3]; 0.37 µM) | normalised growth rate inhibition ([3]; 1.11 µM) | normalised growth rate inhibition ([3]; 3.33 µM) | normalised growth rate inhibition ([3]; 10 µM) | normalised growth rate inhibition ([4]; 0.04 µM) | normalised growth rate inhibition ([4]; 0.12 µM) | normalised growth rate inhibition ([4]; 0.37 µM) | normalised growth rate inhibition ([4]; 1.11 µM) | normalised growth rate inhibition ([4]; 3.33 µM) | normalised growth rate inhibition ([4]; 10 µM) | normalised growth rate inhibition ([5]; 0.04 µM) | normalised growth rate inhibition ([5]; 0.12 µM) | normalised growth rate inhibition ([5]; 0.37 µM) | normalised growth rate inhibition ([5]; 1.11 µM) | normalised growth rate inhibition ([5]; 3.33 µM) | normalised growth rate inhibition ([5]; 10 µM) | normalised growth rate inhibition ([6]; 0.04 µM) | normalised growth rate inhibition ([6]; 0.12 µM) | normalised growth rate inhibition ([6]; 0.37 µM) | normalised growth rate inhibition ([6]; 1.11 µM) | normalised growth rate inhibition ([6]; 3.33 µM) | normalised growth rate inhibition ([6]; 10 µM) |
| --- | --- | --- | --- | --- | --- | --- | --- | --- | --- | --- | --- | --- | --- | --- | --- | --- | --- | --- | --- | --- | --- | --- | --- | --- | --- | --- | --- | --- | --- | --- | --- | --- | --- | --- | --- | --- |
| CNC(=O)c1ccc(Nc2cc(Nc3ccccc3S(=O)(=O)C(C)C)c3cc[nH]c3n2)nc1 [HG-5-113-01] | 0.866 ± 0.069 | 0.718 ± 0.18 | 0.399 ± 0.21 | 0.163 ± 0.11 | 0.064 ± 0.018 | -0.222 ± 0.1 | 0.969 ± 0.058 | 0.888 ± 0.068 | 0.705 ± 0.12 | 0.35 ± 0.19 | 0.123 ± 0.089 | -0.0611 ± 0.15 | 0.875 ± 0.062 | 0.798 ± 0.16 | 0.514 ± 0.3 | 0.0629 ± 0.15 | -0.121 ± 0.069 | -0.148 ± 0.12 | 0.968 ± 0.013 | 0.92 ± 0.036 | 0.851 ± 0.034 | 0.713 ± 0.031 | 0.312 ± 0.16 | -0.0419 ± 0.062 | 0.9393 ± 0.0065 | 0.9 ± 0.013 | 0.77 ± 0.043 | 0.443 ± 0.17 | 0.109 ± 0.13 | -0.0329 ± 0.066 | 0.953 ± 0.041 | 0.8835 ± 0.0077 | 0.785 ± 0.069 | 0.601 ± 0.057 | 0.295 ± 0.051 | -0.158 ± 0.11 |
| Cn1c(=O)n(-c2ccc(C(C)(C)C#N)cc2)c2c3cc(-c4cnc5ccccc5c4)ccc3ncc21 [NVP-BEZ235] | 0.166 ± 0.15 | 0.122 ± 0.16 | 0.0651 ± 0.16 | 0.0257 ± 0.12 | 0.034 ± 0.1 | 0.068 ± 0.071 | 0.397 ± 0.2 | 0.301 ± 0.19 | 0.196 ± 0.2 | 0.216 ± 0.15 | 0.223 ± 0.11 | 0.266 ± 0.095 | 0.0857 ± 0.065 | 0.0449 ± 0.11 | -0.0406 ± 0.12 | -0.04 ± 0.11 | -0.035 ± 0.12 | 0.0305 ± 0.11 | 0.393 ± 0.24 | 0.269 ± 0.12 | 0.171 ± 0.038 | 0.164 ± 0.048 | 0.168 ± 0.052 | 0.202 ± 0.03 | 0.261 ± 0.067 | 0.197 ± 0.078 | 0.109 ± 0.087 | 0.132 ± 0.11 | 0.115 ± 0.052 | 0.128 ± 0.044 | 0.254 ± 0.1 | 0.13 ± 0.12 | 0.0662 ± 0.092 | 0.061 ± 0.042 | 0.055 ± 0.039 | 0.103 ± 0.053 |
| Cc1nc(Nc2ncc(C(=O)Nc3c(C)cccc3Cl)s2)cc(N2CCN(CCO)CC2)n1 [dasatinib] | 0.342 ± 0.32 | 0.0795 ± 0.2 | -0.0261 ± 0.17 | -0.0357 ± 0.15 | -0.0394 ± 0.16 | -0.0825 ± 0.16 | 0.159 ± 0.29 | -0.107 ± 0.1 | -0.204 ± 0.032 | -0.233 ± 0.054 | -0.239 ± 0.061 | -0.259 ± 0.12 | 0.998 ± 0.06 | 0.937 ± 0.08 | 0.942 ± 0.058 | 0.766 ± 0.064 | 0.398 ± 0.15 | -0.166 ± 0.22 | 0.621 ± 0.24 | 0.391 ± 0.23 | 0.196 ± 0.14 | 0.0869 ± 0.091 | -0.0296 ± 0.08 | -0.138 ± 0.061 | 0.394 ± 0.28 | 0.17 ± 0.22 | 0.0194 ± 0.17 | -0.0213 ± 0.16 | -0.0565 ± 0.17 | -0.109 ± 0.15 | 0.622 ± 0.27 | 0.364 ± 0.2 | 0.0964 ± 0.081 | 0.0125 ± 0.077 | -0.085 ± 0.094 | -0.163 ± 0.1 |
| O=C1NC(=O)/C(=C/c2ccc3nccc(-c4ccncc4)c3c2)S1 | 0.983 ± 0.059 | 0.844 ± 0.057 | 0.581 ± 0.08 | 0.224 ± 0.075 | -0.0358 ± 0.081 | -0.203 ± 0.081 | 1.03 ± 0.083 | 0.992 ± 0.052 | 0.912 ± 0.049 | 0.513 ± 0.18 | 0.131 ± 0.25 | -0.0544 ± 0.27 | 0.987 ± 0.084 | 0.81 ± 0.14 | 0.541 ± 0.15 | 0.0268 ± 0.1 | -0.291 ± 0.12 | -0.421 ± 0.12 | 0.987 ± 0.039 | 0.887 ± 0.11 | 0.608 ± 0.17 | 0.143 ± 0.074 | -0.0425 ± 0.058 | -0.115 ± 0.059 | 0.948 ± 0.035 | 0.835 ± 0.057 | 0.647 ± 0.083 | 0.372 ± 0.044 | 0.0713 ± 0.13 | -0.118 ± 0.12 | 0.934 ± 0.086 | 0.638 ± 0.15 | 0.192 ± 0.15 | -0.221 ± 0.082 | -0.352 ± 0.1 | -0.44 ± 0.1 |
| COCC(=O)NC/C=C/c1ccc2ncnc(Nc3ccc(Oc4ccc(C)nc4)c(C)c3)c2c1 | 0.835 ± 0.1 | 0.803 ± 0.063 | 0.786 ± 0.025 | 0.796 ± 0.066 | 0.822 ± 0.084 | 0.499 ± 0.13 | 0.899 ± 0.13 | 0.896 ± 0.13 | 0.897 ± 0.12 | 0.912 ± 0.088 | 0.832 ± 0.15 | 0.812 ± 0.14 | 0.508 ± 0.27 | 0.315 ± 0.22 | 0.188 ± 0.21 | 0.165 ± 0.12 | 0.0772 ± 0.1 | -0.0874 ± 0.078 | 1.011 ± 0.0036 | 0.9964 ± 0.006 | 0.989 ± 0.014 | 0.984 ± 0.01 | 0.9849 ± 0.0016 | 0.9384 ± 0.003 | 0.966 ± 0.018 | 0.975 ± 0.035 | 0.963 ± 0.026 | 0.956 ± 0.042 | 0.928 ± 0.025 | 0.857 ± 0.017 | 0.928 ± 0.0096 | 0.918 ± 0.026 | 0.892 ± 0.045 | 0.805 ± 0.032 | 0.767 ± 0.053 | 0.531 ± 0.052 |
| CC1=C(CO)C(=O)O[C@@H]([C@@H](C)[C@H]2CC[C@H]3[C@@H]4C[C@H]5O[C@]56[C@@H](O)C=CC(=O)[C@]6(C)[C@H]4CC[C@]23C)C1 [withaferin-a] | 1.01 ± 0.055 | 0.907 ± 0.091 | 0.283 ± 0.09 | 0.0882 ± 0.037 | -0.196 ± 0.13 | -0.141 ± 0.099 | 1.04 ± 0.053 | 1 ± 0.05 | 0.614 ± 0.16 | -0.0338 ± 0.067 | -0.143 ± 0.056 | -0.336 ± 0.097 | 1.04 ± 0.063 | 0.892 ± 0.096 | 0.174 ± 0.15 | -0.104 ± 0.11 | -0.3 ± 0.086 | -0.278 ± 0.12 | 0.9993 ± 0.0071 | 0.984 ± 0.025 | 0.861 ± 0.05 | -0.0779 ± 0.054 | -0.193 ± 0.15 | -0.244 ± 0.19 | 1.01 ± 0.018 | 1.01 ± 0.02 | 0.944 ± 0.077 | -0.0869 ± 0.077 | -0.085 ± 0.037 | -0.287 ± 0.077 | 1.04 ± 0.038 | 0.99 ± 0.083 | 0.714 ± 0.13 | -0.105 ± 0.13 | -0.345 ± 0.065 | -0.283 ± 0.026 |
